Structures can show the parent of a compound that is named as a salt.
Key:
dd strain male mice [1] = assay: Analgesic activity test: acetic acid-induced stretching method; format: in vivo; conditions: Mus musculus, oral, 30 min before 0.6% acetic acid i.p., 95% confidence limits in parentheses on the next line
Protocol: (§1) The results of analgesic activity test and acute toxicity test performed on the compounds of this invention and aminopyrin as control are as described below.
Groups of each 10 dd strain male mice (about 18 g in body weight) were used for the test. Each mouse was orally administered with the drug being tested. Thirty minutes after the administration, 0.1 ml/10 g of a 0.6% acetic acid solution was intraperitoneously injected. […] The percentage effectiveness was determined by the formula [formula] From the effectiveness data, the median effective dose (ED50) and its 95% confidence limits were calculated by the method of Litchfield-Wilcoxon.

dd strain male mice [2] = assay: Analgesic activity test: modified Haffner method; format: in vivo; conditions: 30 min before 2 mg/kg morphine hydrochloride s.c., tail clamp, 95% confidence limits in parentheses; for ED50: Mus musculus
Protocol: as §1
Groups of each 10 dd strain male mice (about 19 g in body weight) were used for the test. Thirty minutes after the oral administration of the drug under test, 2 mg/kg of morphine hydrochloride was subcutaneously injected. After 15 minutes, the basal part of the mouse tail was clamped with Kocher's forcepts four times at each time interval of 15 minutes to observe the pain reaction of each mouse. The percentage effectiveness was calculated by the formula [formula] From the effectiveness data, the median effective dose (ED50) and its 95% confidence limits were calculated by the method of Litchfield-Wilcoxon.

Acute toxicity test = format: in vivo, mice; conditions: mouse, in vivo; oral, 72 hours of observation; dd strain male mice; 95% confidence limits in parentheses on the next line
Description: as §1
(§2) Groups of each 4-6 dd strain male mice (about 19 g in body weight) were used for the test. […] When the median lethal dose was not obtainable, the dose (mg/kg) and the ratio (number of dead animals)/(number of test animals) were shown in Table 2.

dd strain male mice [3] = assay: Acute toxicity test; format: in vivo; conditions: 72 hours
Description: as §1, §2

Row | Structure (SMILES) | ED50 (dd strain male mice [1]) [mg/kg] | ED50 (dd strain male mice [2]; po) [mg/kg] | LD50 at 72 h (Acute toxicity test) [mg/kg] | Acute toxicity, (number of dead animals)/(number of test animals) (dd strain male mice [3]; 100 mg/kg (so in the source) oral) | Acute toxicity, (number of dead animals)/(number of test animals) (dd strain male mice [3]; 250 mg/kg oral) | Acute toxicity, (number of dead animals)/(number of test animals) (dd strain male mice [3]; 500 mg/kg oral) | Acute toxicity, (number of dead animals)/(number of test animals) (dd strain male mice [3]; 1000 mg/kg oral) | Analgesic activity, ED50, Haffner method (dd strain male mice [2]; oral) [mg/kg] | ED50 (dd strain male mice [2]; oral) [mg/kg]
1 | Cc1c(N(C)C)c(=O)n(-c2ccccc2)n1C [Aminopyrin, aminopyrin, reference compound] | 63 | 65 | 750 |  |  |  |  |  | 
2 | Fc1ccccc1N1CCN(CC2CC2)CC1 [Compound 1] | 12.6 | 11 |  | 6/6 | 2/6 | 3/6 |  |  | 
3 | Cl.Cl.Fc1ccc(N2CCN(CC3CC3)CC2)cc1 [Compound 2, 1-(cyclopropylmethyl)-4-(4-fluorophenyl)piperazine dihydrochloride] | 9.4 | 13.2 |  |  | 1/6 | 5/6 | 6/6 |  | 
4 | Clc1cccc(N2CCN(CC3CC3)CC2)c1 [Compound 3] |  | 13.8 |  |  | 0/6 | 2/6 | 6/6 |  | 
5 | Clc1ccc(N2CCN(CC3CC3)CC2)cc1 [Compound 4] | 17.9 | 6.3 |  |  | 0/6 | 5/6 | 6/6 |  | 
6 | Clc1ccc(N2CCN(CC3CC3)CC2)cc1Cl [Compound 5] | 17.2 | 7.2 |  |  | 0/6 | 2/6 | 6/6 |  | 
7 | Cl.Cl.FC(F)(F)c1cccc(N2CCN(CC3CC3)CC2)c1 [Compound 6, 1-(cyclopropylmethyl)-4-(3-trifluoromethylphenyl)piperazine dihydrochloride] | 2.8 | 3.7 |  |  | 0/6 | 4/6 | 6/6 |  | 
8 | FC(F)(F)c1cccc(N2CCN(CC3CC3)CC2)c1 [Compound 7] |  | 5.5 |  |  | 0/6 | 2/6 | 6/6 |  | 
9 | FC(F)(F)c1cccc(N2CCN(CC3CC3)CC2)c1 [Compound 9] |  |  |  |  | 0/6 | 3/6 | 6/6 | 4.9 | 
10 | FC(F)(F)c1cccc(N2CCN(CC3CC3)CC2)c1.O=C(O)CC(O)(CC(=O)O)C(=O)O [Compound 10, 1-(Cyclopropylmethyl)-4-(3-trifluoromethylphenyl)piperazine citrate] | 8.7 |  |  |  | 0/6 | 2/6 | 6/6 |  | 2.5
11 | FC(F)(F)c1cc(N2CCN(CC3CC3)CC2)ccc1Cl [Compound 11] | 20.2 | 5.8 |  |  | 0/6 | 5/6 | 6/6 |  | 
12 | CC(C)N1CCN(c2cccc(C(F)(F)F)c2)CC1 [Compound 12, 1-(3-trifluoromethyl)-4-isopropylpiperazine dihydrochloride] | 4.2 | 4.9 |  |  | 0/6 | 6/6 | 6/6 |  | 
13 | C=CCN1CCN(c2cccc(C(F)(F)F)c2)CC1.Cl.Cl [Compound 14, 1-Allyl-4-(3-trifluoromethylphenyl)piperazine dihydrochloride] | 13.6 | 7 |  |  | 0/6 | 4/6 | 6/6 |  | 
